Tests used:
HeLa = test: Cytotoxicity against human HeLa cells assessed as growth inhibition; assay type: functional
MOLT-4 = test: Cytotoxicity against human MOLT4F cells assessed as growth inhibition; assay type: functional
L1210 [1] = test: Antitumor activity against mouse L1210 cells allografted in DBA/2 HaDD mouse assessed as survival at 40 mg/kg, ip bid administered for 2 days (reference value: 8.7 days); assay type: functional; conditions: route intraperitoneal
[2] = Stability of the compound in presence of CR/dCR deaminase; assay type: ADME
L1210 [3] = test: Cytotoxicity against mouse L1210 cells assessed as growth inhibition; assay type: functional
L1210 [4] = test: Antitumor activity against mouse L1210 cells allografted in DBA/2 HaDD mouse assessed as survival at 75 mg/kg, ip bid administered for 2 days (reference value: 8.7 days); assay type: functional; conditions: route intraperitoneal

## [N-]=[N+]=N[C@H]1[C@H](O)[C@@H](CO)O[C@H]1n1ccc(N)nc1=O [CYTARAZID]
HeLa
  GI50: 200 nM
MOLT-4
  GI50: 70 nM
L1210 [1]
  Survival: >120 days
[2]
  Stability: Stable
L1210 [3]
  GI50: 600 nM

## Nc1ccn([C@@H]2O[C@H](CO)[C@@H](O)[C@@H]2N)c(=O)n1
HeLa
  GI50: 30000 nM
[2]
  Stability: Stable
L1210 [4]
  Survival: >120 days
L1210 [3]
  GI50: 4000 nM
